Test results from patent US8940894B2, “Aminothiazole compounds as kinase inhibitors and methods of using the same” (AB Science, priority 2007, dated 2015).

Columns and labels:
[1] = behaviour of the polymorph form at relative humidity (storage); assay type: physicochemical; settings: at 80% relative humidity
[2] = thermodynamic stability of the polymorph form versus temperature; assay type: physicochemical; settings: at temperatures below 200° C.

Structure (SMILES): CS(=O)(=O)O.Cc1ccc(NC(=O)c2ccc(CN3CCN(C)CC3)cc2)cc1Nc1nc(-c2cccnc2)cs1 [(VI), 4-(4-Methyl-piperazin-1-ylmethyl)-N-[4-methyl-3-(4-pyridin-3-yl-thiazol-2-ylamino)-phenyl]-benzamide methanesulfonate]
- state of the polymorph form under humidity [1]: remains, dry
- thermodynamic stability of the polymorph form [2]: thermodynamically stable
